Assay: Partition coefficient (logP)
Format: physicochemical
Details: octanol/water

SMILES | logP (read-out: logP) | logP
CCC(C)(C)Br | 2.99 | 
ClCC(Cl)(Cl)Cl | 3.05 | 
CCCCCBr | 3.25 | 
CCCCCCCCBr | 4.87 | 
C=C(Cl)CCl | 1.75 | 
CCCCCCCl | 3.65 | 
CCC(C)Br (stereo not drawn) | 2.71 | 
CCC(C)CBr (stereo not drawn) | 3.12 | 
ClCCCBr | 1.88 | 
Cl/C=C/Cl | 0.65 | 
C=C(C)CCl | 1.89 | 
CC(C)=CBr | 1.8 | 
ClCCCCl | 1.74 | 
CCCCCCCCCl | 4.85 | 
CC(C)CCBr | 3.12 | 
ClCCBr | 1.62 | 
ClCC=C(Cl)Cl | 1.5 | 
CC(C)=CCl | 1.89 | 
ClC(Cl)(Cl)Br | 3.1 | 
C=C(CCl)CCl | 2.01 | 
CC(Br)CCl (stereo not drawn) | 2.16 | 
CC(C)CCl | 2.44 | 
FC(Cl)(Br)Br | 2.8 | 
C/C(Cl)=C/Cl | 1.79 | 
CCC(C)Cl (stereo not drawn) | 2.57 | 
CC(C)CBr | 2.58 | 
ClCBr | 1.4 | 

SMILES | logP (read-out: logP) | logP
CC(Cl)C(C)Cl (stereo not drawn) | 2.56 | 
CC(C)(C)Cl | 2.44 | 
CC(C)(C)Br | 2.45 | 
CCCCCCl | 3.11 | 
CC(C)(Cl)Cl | 2.34 | 
ClCCCCBr | 2.42 | 
CC(Cl)CCCl (stereo not drawn) | 2.28 | 
CC(Cl)CCl (stereo not drawn) | 2.02 | 
CC(Cl)Cl | 1.8 | 
ClC(Cl)C(Cl)Cl [1,1,2,2-TETRACHLOROETHANE] | 2.66 | 
C=C(Cl)Cl [1,1-DICHLOROETHENE] | 1.21 | 
ClCC(Cl)CCl [1,2,3-TRICHLOROPROPANE] | 2.01 | 
Cl/C=C/CCl [1,3-DICHLOROPROPENE] | 1.19 | 
CCCCBr [1-BROMOBUTANE] | 2.71 | 
ClC(Cl)Br [BROMODICHLOROMETHANE] | 2.67 | 
CCBr [BROMOETHANE] | 1.63 | 
BrC(Br)Br [BROMOFORM] | 2.38 | 
ClC(Cl)(Cl)Cl [CARBON TETRACHLORIDE] | 2.83 | 
ClC(Br)Br [DIBROMOCHLOROMETHANE] | 2.48 | 
ClC(Cl)(Cl)C(Cl)(Cl)Cl [HEXACHLOROETHANE] | 4.62 | 
ClCCl [METHYLENE CHLORIDE] | 1.26 | 
ClC(Cl)C(Cl)(Cl)Cl [PENTACHLOROETHANE] |  | 5.72
ClC(Cl)=C(Cl)Cl [TETRACHLOROETHYLENE] |  | 1.27
CC(Cl)(Cl)Cl [TRICHLOROETHANE] | 2.5 | 
ClC=C(Cl)Cl [TRICHLOROETHYLENE] |  | 0.96
FC(Cl)(Cl)Cl [TRICHLOROMONOFLUOROMETHANE] | 2.29 | 

From ChEMBL document CHEMBL1128241, “Molecular similarity matrices and quantitative structure-activity relationships: a case study with methodological implications” (J Med Chem, 1995)
